SMILES | melting point [°C]
CCCCOc1cc(CCC(=O)O)ccc1CCCc1ccc(OCC)c(OC)c1 | 66
CCOC(=O)c1cnc2c(c(C)nc3cc(C)nn32)c1N1CCN(C)CC1 | 158 to 159
CC(=O)O[C@H]1[C@H]([C@H](Cc2ccccc2)NC(=O)OCc2ccccc2)OC(=O)N[C@H]1Cc1ccccc1 | 140 to 142
Cc1[nH]cnc1CSCCNc1[nH]cc(CCc2ccccc2)c1[N+](=O)[O-] | 186 to 187
CCCCCC1COc2cc(CCC3=Cc4cc(F)cc(F)c4OC3)c(F)cc2C1 (configuration not stated) | 84
O=C(O)c1ccc(C2=NOC(c3cc(Cl)cc(Cl)c3)(C(F)(F)F)C2)cc1 (configuration not stated) | 237 to 240
CCn1c(=O)oc2cc([N+](=O)[O-])cc(F)c21 | 121 to 122
Cc1cccc2ncc(C(=O)NC34CC5CC(CC(C5)C3)C4)c(=O)n12 | 190 to 193
CCOC(=O)Cn1c(=O)c(=O)[nH]c2cc(Br)ccc21 | 282 to 283
NS(=O)(=O)c1cccc(NC(=O)NC2N=C(c3ccccc3F)c3ccccc3N(CC(=O)N3CC4CCC(CC4)C3)C2=O)c1 (racemic) | 221 to 226
CCOC(=O)C1Nc2ccccc2S(=O)(=O)n2cccc21 (configuration not stated) | 131 to 134
OC1CSC(Oc2ccc(-c3ccc(OC(F)(F)F)cc3)nc2)C(O)C1O (configuration not stated) | 184 to 186
Fc1cc(F)cc(Cn2cnnc2S)c1 | 129 to 130
Cc1nc(C(C)O)cn1Cc1ccccc1 (configuration not stated) | 162 to 168
CCc1nc(/C=C/c2cn(-c3ccccc3)nc2OCc2ccc(OCc3nc(-c4cccc(-c5nnn[nH]5)c4)oc3C)c(OC)c2)cs1 | 144 to 147
NC(=CC(=O)[C@H](Cc1ccccc1)N(Cc1ccccc1)Cc1ccccc1)Cc1ccccc1 | 101 to 102
N#CCN(CP(=O)(Oc1ccccc1)Oc1ccccc1)N=O | 76 to 78

SMILES | melting point [°C]
c1cn(Cc2nc(-c3ccc4c(c3)OCO4)c3cc4c(cc3n2)OCO4)cn1 | 182 to 185
CCOC(=O)NN(C(=O)NC)S(=O)(=O)c1ccccc1 | 138 to 142
CC(c1oc2ccccc2c(=O)c1-c1cccc(F)c1)n1nc(-c2ccc3[nH]ccc3c2)c2c(N)ncnc21 (configuration not stated) | 197 to 199
OCC(Nc1ncnc2nc[nH]c12)c1ccccc1 (racemic) | 130 to 138
CC(C)C(NC(=O)Nc1ccc(C(=O)NCC(=O)N(C)C)cc1)C(=O)N1CCCC1C(=O)NC(C(=O)C(F)(F)F)C(C)C (mixture of isomers) | 115 to 125
O=C(O)C=C(Oc1ccc(OC(F)(F)F)cc1)C(=O)O | 208 to 210
C=C[C@@H](C[C@H](O)[C@H](CC1CCCCC1)NC(=O)[C@H](Cc1c[nH]cn1)NC(=O)[C@@H](CC(=O)N1CCC(C(=O)O)CC1)Cc1ccccc1)C(C)C | 169
CCCC(=O)c1cc(OC)c(O)c([N+](=O)[O-])c1 | 92 to 93
CONC(=O)c1cnn(-c2ccccc2)c1Br | 194 to 197
CC(=O)Oc1ccc(CCC2CC(C)(OC(C)=O)CC(=O)O2)cc1 (configuration not stated) | 72 to 75
COc1ccccc1-c1cc(F)cc(OCc2ccc3c(-c4ccoc4)cc(C#N)nc3c2)c1 | 132 to 134
Nc1nc(SC2CCCC2)c2ncn(C3C=CC(CO)C3)c2n1 (configuration not stated) | 167 to 169
CCN(CC)c1nsc(NC(=O)NC)c1C#N | 182 to 183
COc1nc2c(s1)C(=O)N(C(C)(C)C)C2=O | 63 to 66
OCCCc1ccccc1OCc1ccccc1 | 45 to 48
O=[N+]([O-])c1ccc(-n2cccn2)c(F)c1 | 128 to 129
CC(C)(C)C(=O)Oc1ccc(C(=O)c2ccc(OC(=O)C(C)(C)C)cc2OC(=O)C(C)(C)C)c(OC(=O)C(C)(C)C)c1 | 154 to 156

Second part, the compound after the results:

melting point [°C] | SMILES
158 to 160 | Cc1cc(SC2CC(=O)N(c3ccccc3)C2=O)cc(C(C)(C)C)c1O (configuration not stated)
162 to 163 | CCNC(=O)C1Cc2c(n(C)c3ccc(OC)cc23)C1 (configuration not stated)
158 to 160 | CC(=O)NCC1CN(c2ccc(N3CCC(n4cc(C5(C)CO5)nn4)CC3)c(F)c2)C(=O)O1 (configuration not stated)
159 to 162 | CON1C=C2N=NC3=C(N2C1)N(c1cc(Cl)ccc1Cl)CC(C)=C3
130 to 132 | Cc1cccc(C=NN2CCN(C(c3ccccc3)c3ccccc3)CC2)n1
122 to 124 | CCCCCCCCc1ccc(OCC(=O)Cn2ccc3cc(C(=O)O)ccc32)cc1
189 to 191 | O=C(c1ccc(Cl)cc1)N1CCCC2=C1CCc1cc(Cl)ccc12
134 to 136 | O=C(O)c1ccc(Cl)cc1NC(=O)C(CS)Cc1ccccc1 (configuration not stated)
135 | CCOC(=O)c1ccc(NCc2cc(Br)ccc2OCc2ccccc2)c(N)c1
> 230 | O=C(C(c1ccccc1)n1cnc2[nH]ncc2c1=S)N1CCCCCC1 (configuration not stated)
205 | COc1cc(-c2cccc(Cl)c2)c2cc(C(O)c3cncn3C)ccc2n1 (configuration not stated)
131 to 133 | O=c1ccoc2c(C/C=C/c3ccccc3)c(OCc3ccccc3)ccc12
51 to 52 | CCOC(=O)Nc1ccc(C)c(Cl)c1
295 | COc1ccc2ccc(NC(=O)c3cccc(O)c3)nc2n1
168 to 169 | CCCCCCC(=N)NC(=O)Nc1ccc(Cl)cc1
167 to 170 | COc1cc(C=C2CCN(C(=O)NOCc3ccccc3)C2=O)cc(OC)c1O
229 to 231 | Nc1nc2c(c(Nc3ccc(C(F)(F)F)cc3)n1)-c1ccccc1C2

melting point [°C] | SMILES
65 | Cc1ccc(C(=O)C(=O)c2ccncc2)cc1
269 to 271 | CN(C)c1cccc(-n2cc(C(=O)NC(=N)N)c3cccnc32)c1
105 to 107 | CN(C(=O)c1ccc2c(c1)nc(NC(=O)c1cccs1)n2CCCO)C1CCCCC1
223 to 225 | CCOC(=O)c1cn(CCO)c2nc(-c3ccncc3)c(F)cc2c1=O
267 to 269 | COc1cc(Nc2c(C#N)cnc3cc(Oc4ccncc4)c(OC)cc23)c(Cl)cc1Cl
197 to 198 | Cc1oc(-c2ccccc2)nc1COc1ccc(/C=C/C(=O)C(=O)O)cc1
274 to 277 | Nc1nc(-c2ccc(CCN3CCN(c4cccc5ccccc45)CC3)cc2)cs1
141 to 143 | C=CCc1c(N2C(=O)C3=C(CCCC3)C2=O)ccc(C)c1O
136 to 137 | COc1cc2c(cc1O)CCCN(Cc1ccccc1OC)C2
155 | CC(C)(c1cc(F)ccc1O)c1cc(F)ccc1O
95 to 97 | O=C(Nc1cccc2ccccc12)OCCCC(=O)c1ccccc1
126 | COCc1nc2cccnc2n1Cc1ccc(C(=O)N(C(C)C)C2CCCCC2)cc1OC
250 to 254 | Cn1c(COc2ccc(CC3SC(=O)NC3=O)cc2)nc2ccc(Oc3ccc4cccc(NC(=O)Nc5ccc(C(F)(F)F)cc5)c4c3)cc21 (configuration not stated)
104 to 106 | CCOc1ccc(C2=NN(c3ccc(C(=O)N4CCSCC4)cc3)C(=O)[C@H]3CC=CC[C@@H]23)cc1OCC (relative stereo)
196 to 197 | Cc1cccc(-c2c(CC(=O)Nc3ccc(F)cc3C(F)(F)F)c(=O)oc3cc4c(cc23)CC=C4)c1
136 | CCOC(=O)c1ccccc1Cn1c(C(=O)O)cc2ccccc21

From a melting point compilation (Tetko et al.; mined from patent text by program, amines drawn as free bases though some values may be those of a salt)
